This is an account of results in US7956196B2, “1,3-dihydro-benzimidazol-2-ylidene amines as inhibitors of respiratory syncytial virus replication” (Tibotec Pharmaceuticals Ltd., priority 2005, dated 2011).

Read-outs that look alike come from different tables or passages of the source. Some results are limits rather than exact numbers.

Data set [1] has as its system Respiratory Syncytial Virus. Description: In vitro screening for activity against RSV, automated tetrazolium-based (MTT) colorimetric assay in HeLa cells. The format is cell-based. Particulars: human respiratory syncytial virus, 168 h, read-out: pIC50 (converted). The text has this: In vitro screening of compounds of formula (I) for activity against RSV. The percent protection against cytopathology caused by viruses (antiviral activity or EC50) achieved by tested compounds and their cytotoxicity (CC50) are both calculated from dose-response curves. The selectivity of the antiviral effect is represented by the selectivity index (SI), calculated by dividing the CC50 (cytotoxic dose for 50% of the cells) by the EC50 (antiviral activity for 50% of the cells). The tables in the above experimental part list the category to which each of the prepared compounds belong: Compounds belonging to activity category “A” have a pEC50 (-log of EC50 when expressed in molar units) equal to or more than 7. Compounds belonging to activity category “B” have a pEC50 value between 6 and 7.
Automated tetrazolium-based colorimetric assays were used for determination of EC50 and CC50 of test compounds. Flat-bottom, 96-well plastic microtiter trays were filled with 180 μl of Eagle's Basal Medium, supplemented with 5% FCS (0% for FLU) and 20 mM Hepes buffer. Subsequently, stock solutions (7.8×final test concentration) of compounds were added in 45 μl volumes to a series of triplicate wells so as to allow simultaneous evaluation of their effects on virus- and mock-infected cells. Five five-fold dilutions were made directly in the microtiter trays using a robot system. Untreated virus controls, and HeLa cell controls were included in each test. Approximately 100 TCID50 of Respiratory Syncytial Virus was added to two of the three rows in a volume of 50 μl. The same volume of medium was added to the third row to measure the cytotoxicity of the compounds at the same concentrations as those used to measure the antiviral activity. After two hours of incubation, a suspension (4×10^5 cells/ml) of HeLa cells was added to all wells in a volume of 50 μl. The cultures were incubated at 37° C. in a 5% CO2 atmosphere. Seven days after infection the cytotoxicity and the antiviral activity was examined spectrophotometrically. To each well of the microtiter tray, 25 μl of a solution of MTT (3-(4,5-dimethylthiazol-2-yl)-2,5-diphenyltetrazolium bromide) was added. The trays were further incubated at 37° C. for 2 hours, after which the medium was removed from each cup. Solubilization of the formazan crystals was achieved by adding 100 μl 2-propanol. Complete dissolution of the formazan crystals were obtained after the trays have been placed on a plate shaker for 10 min. Finally, the absorbances were read in an eight-channel computer-controlled photometer (Multiskan MCC, Flow Laboratories) at two wavelengths (540 and 690 nm). The absorbance measured at 690 nm was automatically subtracted from the absorbance at 540 nm, so as to eliminate the effects of non-specific absorption.
The percent protection against cytopathology caused by viruses (antiviral activity or EC50) achieved by tested compounds and their cytotoxicity (CC50) were both calculated from dose-response curves. The selectivity of the antiviral effect is represented by the selectivity index (SI), calculated by dividing the CC50 (cytotoxic dose for 50% of the cells) by the EC50 (antiviral activity for 50% of the cells).

The mark [2] stands for this setting: protection against RSV cytopathology in HeLa cells, MTT readout seven days after infection.

In the case of `N#Cc1ccc(Cn2c(=NCCc3ccc(O)cc3)n(Cc3cccc4cccnc34)c3ccccc32)cc1` [Compound 4], the melting point stood at 160 °C. The IC50 in data set [1] (setting [2]) was 12.6 nM.
`COc1cc(C(=O)N=c2n(Cc3ccc(C#N)cc3)c3ccccc3n2Cc2cccc3cccnc23)cc(OC)c1OC` [Compound 32] showed a melting point of 108 °C. Besides, the IC50 in data set [1] (HeLa) is greater than 100000 nM.
`N#Cc1ccc(Cn2c(=NC(=O)c3cccc(Cl)c3)n(Cc3cccc4cccnc34)c3ccccc32)cc1` [Compound 19] returned a melting point of 160 °C. Also, the IC50 in data set [1] (setting [2]) was 316 nM.
On the same counts, the results for `COC(=O)c1ccc(Cn2c(=NC(=O)c3cc(C(F)(F)F)cc(C(F)(F)F)c3)n(Cc3cccc4cccnc34)c3ccccc32)cc1` [Compound 39] are 204 °C and 1580 nM.
For `CC(C)Oc1ccc(C(=O)N=c2n(Cc3ccc(C#N)cc3)c3ccccc3n2Cc2cccc3cccnc23)cc1` [Compound 30], the melting point is 118 °C. In data set [1] (setting [2]), the IC50 was 50100 nM.
On to `COc1ccc(CCCN=c2n(Cc3ccc(C#N)cc3)c3ccccc3n2Cc2cccc3cccnc23)cc1` [Compound 9], for which the melting point amounted to 80 °C. Besides, the IC50 in data set [1] (setting [2]) is 50.1 nM.
For `COc1ccc(CCN=c2n(Cc3ccc(Cl)cc3)c3ccccc3n2Cc2cccc3cccnc23)cc1` [Compound 46], the melting point came out at 250 °C. Also, the IC50 in data set [1] (setting [2]) is 100 nM.
As to `N#Cc1ccc(Cn2c(=NC(=O)c3ccc(Cl)cc3Cl)n(Cc3cccc4cccnc34)c3ccccc32)cc1` [Compound 23], the melting point was 114 °C. In data set [1] (HeLa), the IC50 was 631 nM.

As usually defined, the melting point is the temperature of the solid-liquid transition.
